Data from publication PMC8187944, “Discovery of Potent EGFR Inhibitors With 6-Arylureido-4-anilinoquinazoline Derivatives” (Frontiers in Pharmacology, 2021).

Legend:
ERK2 = ERK2 (Homo sapiens, UniProt P28482); experiment: Kinase spectrum assay (ADP-Glo); settings: remaining enzyme activity at 1 μm compound
Aqueous solubility = assay type: physicochemical; settings: in words
IRAK4 = IRAK4 (Homo sapiens, UniProt Q9NWZ3); experiment: Kinase spectrum assay (ADP-Glo); settings: remaining enzyme activity at 1 μm compound
GSK3β = GSK3β (Homo sapiens, UniProt P49841); experiment: Kinase spectrum assay (ADP-Glo); settings: remaining enzyme activity at 1 μm compound
Csk = Csk (Homo sapiens, UniProt P41240); experiment: Kinase spectrum assay (ADP-Glo); settings: remaining enzyme activity at 1 μm compound
JNK1 = JNK1 (Homo sapiens, UniProt P45983); experiment: Kinase spectrum assay (ADP-Glo); settings: remaining enzyme activity at 1 μm compound
HER4 = HER4 (Homo sapiens, UniProt Q15303); experiment: Kinase spectrum assay (ADP-Glo); settings: remaining enzyme activity at 1 μm compound
B-raf = B-raf (Homo sapiens, UniProt P15056); experiment: Kinase spectrum assay (ADP-Glo); settings: remaining enzyme activity at 1 μm compound
LCK = LCK (Homo sapiens, UniProt P06239); experiment: Kinase spectrum assay (ADP-Glo); settings: remaining enzyme activity at 1 μm compound
Syk = Syk (Homo sapiens, UniProt P43405); experiment: Kinase spectrum assay (ADP-Glo); settings: remaining enzyme activity at 1 μm compound
FAK = FAK (Homo sapiens, UniProt Q05397); experiment: Kinase spectrum assay (ADP-Glo); settings: remaining enzyme activity at 1 μm compound
EGFR = molecular target: T1, EGFR (Homo sapiens, UniProt P00533); experiment: EGFR kinase inhibition, ADP-Glo assay; assay type: biochemical
T1 construct: 2 μl (50 ng/ml) of EGFR kinase
Protocol: The EGFR kinase inhibition activities of the target compounds were evaluated by the ADP-Glo™ assay. The ADP-Glo™ kinase detection kit is a luminescence kinase detection approach that detects the amount of ADP produced by the kinase reaction. After ADP is converted into ATP, ATP can be used as the substrate of the luciferase-catalyzed reaction to generate an optical signal, which is positively correlated with kinase activity. […] The above-prepared systems were sealed and incubated at room temperature for 2 h, and 5 μl of ADP-GLO was added to terminate the kinase reaction. Then, the culture plate was sealed and incubated in a thermostatic oscillator for 40 min to fully consume the remaining ATP. The luciferase/luciferin reaction was adopted to determine the newly generated ATP level.

MAPKAPK2 = MAPKAPK2 (Homo sapiens, UniProt P49137); experiment: Kinase spectrum assay (ADP-Glo); settings: remaining enzyme activity at 1 μm compound
MELK = MELK (Homo sapiens, UniProt Q14680); experiment: Kinase spectrum assay (ADP-Glo); settings: remaining enzyme activity at 1 μm compound
FGFR2 = FGFR2 (Homo sapiens, UniProt P21802); experiment: Kinase spectrum assay (ADP-Glo); settings: remaining enzyme activity at 1 μm compound
FLT3 = FLT3 (Homo sapiens, UniProt P36888); experiment: Kinase spectrum assay (ADP-Glo); settings: remaining enzyme activity at 1 μm compound
ASK1 = ASK1 (Homo sapiens, UniProt Q99683); experiment: Kinase spectrum assay (ADP-Glo); settings: remaining enzyme activity at 1 μm compound
KDR = KDR (Homo sapiens, UniProt P35968); experiment: Kinase spectrum assay (ADP-Glo); settings: remaining enzyme activity at 1 μm compound
CDK2 = CDK2 (Homo sapiens, UniProt P24941); experiment: Kinase spectrum assay (ADP-Glo); settings: remaining enzyme activity at 1 μm compound
PKCa = PKCa (Homo sapiens, UniProt P17252); experiment: Kinase spectrum assay (ADP-Glo); settings: remaining enzyme activity at 1 μm compound
A549 cells = experiment: Anti-proliferative assay, standard CCK-8 method; assay type: cell-based, human; settings: Homo sapiens, mean ± SD of at least three independent experiments, read-out: Proliferative inhibition (IC50, μM) A549
Source text: (§1) All reagents and solvents met the criteria of analytical reagents before use. All cancer cell lines (A549, human non-small-cell lung cell line; HT-29, human colonic adenocarcinoma cell line; MCF-7, human breast cancer cell line) were purchased from Stem Cell Bank, Chinese Academy of Sciences. […] ADP-Glo™ kinase assay kits were provided by Promega (Beijing) Biotech Co., Ltd. (Beijing, China). All kinase subtypes were supplied by SignalChem (BC, Canada).
(§2) The designed 4-anilinoquinazoline derivatives were evaluated for their antitumor bioactivities in vitro against three human tumor cell lines (A549, HT-29, and MCF-7) using the standard CCK-8 method. The CCK-8 method is based on WST-8 dye, 2-(2-methoxy-4-nitrophenyl)-3-(4-nitrophenyl)-5-(2,4-disulfophenyl)-2H-tetrazolium. WST-8 can be bio-reduced by dehydrogenases in mitochondria into orange water-soluble formazan products. Briefly, selected cancer cells in the logarithmic growth phase (1 × 10^4) were inoculated in 96-well plates and further cultured in the incubator for 24 h. First, the target compounds were diluted to different concentrations with culture medium with each dilution gradually diluted from the highest concentration solution. Second, the original culture medium was removed after the cells were completely adherent to the wall, and the compounds at various concentrations prepared above were added. In this experiment, a control group and a blank group were set: the former was treated with 0.1% DMSO solution, and the latter was treated with only the culture medium. […] A microplate reader was adopted to record the absorbance at 450 nm, and in this assay, gefitinib, erlotinib, and sorafenib were used as the reference drugs.

MCF-7 cells = experiment: Anti-proliferative assay, standard CCK-8 method; assay type: cell-based, human; settings: Homo sapiens, MCF7, mean ± SD of at least three independent experiments, read-out: Proliferative inhibition (IC50, μM) MCF-7
Source text: as §1, §2

HT-29 cells = experiment: Anti-proliferative assay, standard CCK-8 method; assay type: cell-based, human; settings: Homo sapiens, mean ± SD of at least three independent experiments, read-out: Proliferative inhibition (IC50, μM) HT-29
Source text: as §1, §2

PKACα = PKACα (Homo sapiens, UniProt P17612); experiment: Kinase spectrum assay (ADP-Glo); settings: remaining enzyme activity at 1 μm compound
Chk1 = Chk1 (Homo sapiens, UniProt O14757); experiment: Kinase spectrum assay (ADP-Glo); settings: remaining enzyme activity at 1 μm compound

T1 sequence (P00533 25-1210): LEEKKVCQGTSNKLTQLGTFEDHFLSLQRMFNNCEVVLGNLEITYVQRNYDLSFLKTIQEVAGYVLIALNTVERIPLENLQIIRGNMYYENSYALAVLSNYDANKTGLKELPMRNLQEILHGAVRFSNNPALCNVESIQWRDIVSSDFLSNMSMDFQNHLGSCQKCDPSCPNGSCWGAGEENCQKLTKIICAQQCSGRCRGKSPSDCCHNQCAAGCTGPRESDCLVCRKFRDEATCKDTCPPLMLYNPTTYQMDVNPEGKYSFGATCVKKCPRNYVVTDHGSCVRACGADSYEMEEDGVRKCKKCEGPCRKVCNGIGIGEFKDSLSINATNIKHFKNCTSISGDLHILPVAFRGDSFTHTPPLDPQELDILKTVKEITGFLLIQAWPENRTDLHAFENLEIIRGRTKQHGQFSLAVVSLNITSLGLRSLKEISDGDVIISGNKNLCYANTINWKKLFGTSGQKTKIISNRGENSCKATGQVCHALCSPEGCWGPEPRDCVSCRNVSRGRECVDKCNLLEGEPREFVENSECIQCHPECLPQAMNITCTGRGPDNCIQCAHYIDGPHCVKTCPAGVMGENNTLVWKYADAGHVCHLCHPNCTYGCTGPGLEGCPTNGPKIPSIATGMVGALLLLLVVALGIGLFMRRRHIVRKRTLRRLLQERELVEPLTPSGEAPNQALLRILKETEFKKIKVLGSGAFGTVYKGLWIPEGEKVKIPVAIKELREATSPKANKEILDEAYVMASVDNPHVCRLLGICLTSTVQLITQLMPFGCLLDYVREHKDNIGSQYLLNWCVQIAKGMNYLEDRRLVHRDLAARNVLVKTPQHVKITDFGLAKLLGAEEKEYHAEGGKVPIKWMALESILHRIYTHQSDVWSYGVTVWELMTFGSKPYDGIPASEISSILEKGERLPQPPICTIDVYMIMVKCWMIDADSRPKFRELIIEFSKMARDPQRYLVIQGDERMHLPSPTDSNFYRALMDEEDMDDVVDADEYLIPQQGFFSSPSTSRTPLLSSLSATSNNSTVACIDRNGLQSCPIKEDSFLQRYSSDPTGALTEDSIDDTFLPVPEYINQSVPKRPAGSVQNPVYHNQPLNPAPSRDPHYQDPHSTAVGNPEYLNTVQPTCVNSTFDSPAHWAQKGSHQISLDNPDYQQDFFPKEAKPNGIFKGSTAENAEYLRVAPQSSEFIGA
Chain of ASK1 (Q99683 whole entry): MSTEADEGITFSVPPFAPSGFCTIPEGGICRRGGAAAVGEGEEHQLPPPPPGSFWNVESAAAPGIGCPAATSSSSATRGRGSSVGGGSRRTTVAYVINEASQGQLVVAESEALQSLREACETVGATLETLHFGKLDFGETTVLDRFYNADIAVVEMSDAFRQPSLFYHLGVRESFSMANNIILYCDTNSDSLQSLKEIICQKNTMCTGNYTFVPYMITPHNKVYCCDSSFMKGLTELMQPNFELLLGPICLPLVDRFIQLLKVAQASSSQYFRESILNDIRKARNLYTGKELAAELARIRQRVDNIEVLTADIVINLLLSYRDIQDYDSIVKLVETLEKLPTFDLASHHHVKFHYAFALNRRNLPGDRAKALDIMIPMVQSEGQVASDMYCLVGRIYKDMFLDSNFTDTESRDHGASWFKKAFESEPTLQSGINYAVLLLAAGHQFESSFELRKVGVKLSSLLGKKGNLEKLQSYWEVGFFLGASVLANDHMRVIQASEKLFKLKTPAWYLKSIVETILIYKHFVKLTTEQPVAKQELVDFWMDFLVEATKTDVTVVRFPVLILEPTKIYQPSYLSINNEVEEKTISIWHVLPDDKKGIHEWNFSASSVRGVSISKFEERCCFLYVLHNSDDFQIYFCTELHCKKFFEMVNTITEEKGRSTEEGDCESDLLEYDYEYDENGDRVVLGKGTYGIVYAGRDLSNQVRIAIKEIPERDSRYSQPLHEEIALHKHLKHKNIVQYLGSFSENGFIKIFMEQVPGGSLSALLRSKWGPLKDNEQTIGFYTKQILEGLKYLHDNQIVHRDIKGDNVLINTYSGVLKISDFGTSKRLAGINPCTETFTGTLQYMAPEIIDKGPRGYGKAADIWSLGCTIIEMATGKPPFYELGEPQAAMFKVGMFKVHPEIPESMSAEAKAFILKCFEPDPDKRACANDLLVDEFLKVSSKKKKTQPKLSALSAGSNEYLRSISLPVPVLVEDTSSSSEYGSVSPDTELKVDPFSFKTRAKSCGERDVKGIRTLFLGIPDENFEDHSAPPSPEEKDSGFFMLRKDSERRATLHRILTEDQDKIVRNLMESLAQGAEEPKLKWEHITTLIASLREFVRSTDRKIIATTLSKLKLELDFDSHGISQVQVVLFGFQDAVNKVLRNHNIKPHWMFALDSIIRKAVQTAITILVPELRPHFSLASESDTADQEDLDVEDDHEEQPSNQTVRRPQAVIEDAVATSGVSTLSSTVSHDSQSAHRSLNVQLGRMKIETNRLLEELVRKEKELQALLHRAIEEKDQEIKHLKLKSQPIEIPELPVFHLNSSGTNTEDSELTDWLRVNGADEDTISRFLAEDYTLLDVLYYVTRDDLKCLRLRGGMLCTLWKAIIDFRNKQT
Chain of B-raf (P15056 whole entry): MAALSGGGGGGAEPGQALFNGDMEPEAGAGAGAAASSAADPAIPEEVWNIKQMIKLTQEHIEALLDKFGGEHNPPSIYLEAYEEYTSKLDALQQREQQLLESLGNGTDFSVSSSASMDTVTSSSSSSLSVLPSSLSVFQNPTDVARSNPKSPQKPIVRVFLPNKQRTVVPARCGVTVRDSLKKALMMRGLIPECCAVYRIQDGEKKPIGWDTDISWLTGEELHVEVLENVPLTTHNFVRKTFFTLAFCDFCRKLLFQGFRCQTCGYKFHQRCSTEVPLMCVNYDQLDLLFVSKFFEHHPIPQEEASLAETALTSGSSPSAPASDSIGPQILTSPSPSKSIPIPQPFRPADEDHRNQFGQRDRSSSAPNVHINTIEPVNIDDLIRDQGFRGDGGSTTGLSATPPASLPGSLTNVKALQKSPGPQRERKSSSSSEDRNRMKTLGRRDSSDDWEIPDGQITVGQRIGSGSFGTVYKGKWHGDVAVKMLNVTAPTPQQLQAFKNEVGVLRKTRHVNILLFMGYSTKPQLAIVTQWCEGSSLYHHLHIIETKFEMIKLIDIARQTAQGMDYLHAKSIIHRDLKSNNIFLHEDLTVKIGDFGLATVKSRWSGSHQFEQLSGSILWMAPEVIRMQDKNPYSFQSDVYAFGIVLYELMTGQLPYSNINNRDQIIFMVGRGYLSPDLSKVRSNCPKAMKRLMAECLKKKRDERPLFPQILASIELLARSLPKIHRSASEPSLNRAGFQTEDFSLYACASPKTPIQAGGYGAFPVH
Chain of IRAK4 (Q9NWZ3 whole entry): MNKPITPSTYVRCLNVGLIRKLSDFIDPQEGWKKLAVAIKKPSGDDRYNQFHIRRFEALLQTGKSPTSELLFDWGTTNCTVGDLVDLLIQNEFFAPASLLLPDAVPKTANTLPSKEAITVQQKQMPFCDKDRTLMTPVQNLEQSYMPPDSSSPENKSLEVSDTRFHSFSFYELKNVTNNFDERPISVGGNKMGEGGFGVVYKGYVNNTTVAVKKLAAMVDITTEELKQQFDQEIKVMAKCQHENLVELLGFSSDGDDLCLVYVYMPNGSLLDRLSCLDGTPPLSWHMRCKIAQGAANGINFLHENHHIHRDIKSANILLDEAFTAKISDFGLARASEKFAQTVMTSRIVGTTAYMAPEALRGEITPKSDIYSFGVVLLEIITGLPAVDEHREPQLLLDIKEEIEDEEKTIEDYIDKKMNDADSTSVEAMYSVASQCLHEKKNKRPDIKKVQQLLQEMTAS
Chain of FAK (Q05397 whole entry): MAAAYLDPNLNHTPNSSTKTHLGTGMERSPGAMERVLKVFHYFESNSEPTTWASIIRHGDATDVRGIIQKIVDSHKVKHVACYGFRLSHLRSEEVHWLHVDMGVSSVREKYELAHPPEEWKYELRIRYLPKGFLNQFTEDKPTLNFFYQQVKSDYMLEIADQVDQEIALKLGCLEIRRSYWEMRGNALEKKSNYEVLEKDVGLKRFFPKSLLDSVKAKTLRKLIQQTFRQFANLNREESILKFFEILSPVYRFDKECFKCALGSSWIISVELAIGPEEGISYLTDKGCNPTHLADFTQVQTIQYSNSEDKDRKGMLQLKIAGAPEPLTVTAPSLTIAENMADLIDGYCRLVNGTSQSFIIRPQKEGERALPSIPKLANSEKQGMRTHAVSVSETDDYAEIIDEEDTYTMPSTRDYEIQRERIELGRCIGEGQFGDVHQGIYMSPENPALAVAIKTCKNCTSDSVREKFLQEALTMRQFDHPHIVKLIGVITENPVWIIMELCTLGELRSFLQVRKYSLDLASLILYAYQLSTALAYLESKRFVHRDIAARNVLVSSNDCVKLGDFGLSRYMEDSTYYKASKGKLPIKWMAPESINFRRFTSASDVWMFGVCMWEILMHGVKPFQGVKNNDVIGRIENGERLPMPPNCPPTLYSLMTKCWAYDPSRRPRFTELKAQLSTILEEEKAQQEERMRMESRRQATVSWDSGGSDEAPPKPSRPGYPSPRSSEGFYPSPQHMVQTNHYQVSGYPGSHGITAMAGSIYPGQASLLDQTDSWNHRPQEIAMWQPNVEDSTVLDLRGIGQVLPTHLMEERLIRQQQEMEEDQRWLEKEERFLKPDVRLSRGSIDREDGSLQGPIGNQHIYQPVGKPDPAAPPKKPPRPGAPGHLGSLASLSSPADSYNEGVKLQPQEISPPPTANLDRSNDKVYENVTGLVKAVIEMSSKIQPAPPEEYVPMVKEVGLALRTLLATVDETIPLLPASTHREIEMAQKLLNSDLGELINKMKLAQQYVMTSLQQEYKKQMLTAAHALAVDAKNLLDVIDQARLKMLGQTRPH

In the case of `O=C(Nc1ccc(Cl)c(C(F)(F)F)c1)Nc1ccc2ncnc(Nc3cccc(Br)c3)c2c1` [Compound 7i], the “Enzyme activity % ERK2” value (ERK2) is reported as 97.31 ± 11.84%, the aqueous solubility (Aqueous solubility) is reported as “soluble” and the “Enzyme activity % IRAK4” value (IRAK4) is reported as 86.33 ± 0.56%. The “Enzyme activity % GSK3β” value (GSK3β) was 103.71 ± 1.75%, the “Enzyme activity % Csk” value (Csk) was 93.76 ± 4.09% and the “Enzyme activity % JNK1” value (JNK1) was 89.43 ± 2.48%. The “Enzyme activity % HER4” value (HER4) was 76.85 ± 0.33%, the “Enzyme activity % B-raf” value (B-raf) was 96.68 ± 4.29% and the “Enzyme activity % LCK” value (LCK) was 86.84 ± 6.53%. The “Enzyme activity % Syk” value (Syk) was 101.13 ± 9.99%, the “Enzyme activity % FAK” value (FAK) was 81.70 ± 2.75% and the IC50 (EGFR; ADP-Glo, mean ± SD of at least two independent experiments, read-out: Enzymatic inhibition IC50 (nM) EGFR) was 17.3 ± 0.54 nM. For the same compound, the “Enzyme activity % EGFR” value (EGFR; remaining enzyme activity at 1 μm compound) was 10.52 ± 0.26%, the “Enzyme activity % MAPKAPK2” value (MAPKAPK2) was 86.46 ± 7.38% and the “Enzyme activity % MELK” value (MELK) was 78.83 ± 6.55%. The “Enzyme activity % FGFR2” value (FGFR2) was 91.07 ± 8.02%, the “Enzyme activity % FLT3” value (FLT3) was 92.18 ± 15.36% and the “Enzyme activity % ASK1” value (ASK1) was 62.27 ± 3.02%. The “Enzyme activity % KDR” value (KDR) was 79.66 ± 2.00%, the “Enzyme activity % CDK2” value (CDK2) was 77.40 ± 6.84% and the “Enzyme activity % PKCa” value (PKCa) was 77.27 ± 1.18%. The IC50 (A549 cells) was 2.25 ± 0.08 µM, the IC50 (MCF-7 cells) was 2.81 ± 0.09 µM and the IC50 (HT-29 cells) was 1.72 ± 0.49 µM. The “Enzyme activity % PKACα” value (PKACα) was 86.02 ± 3.75% and the “Enzyme activity % Chk1” value (Chk1) was 75.98 ± 6.72%.
